The text below walks through data of patent publication US9243247B2, “Composition for promoting apoptosis or inhibiting cell growth, comprising epstein-barr virus microrna” (Catholic University Industry Academic Cooperation Foundation, priority 2011, dated 2016).

Format in all cases: cell-based
Data set [1] concerns AGS cell strain. In words: Effect on cell cycle (propidium iodide staining, FACS, sub G1). The settings on record: for Relative Sub G1: mimic 10 nM, 10 uM 5-FU 24 h after transfection, then 48 hours, relative to scrambled control (=1). Put shortly:
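AGS gastric cells (EBV-negative), 2×10^5 per well, were transfected with synthetic miRNA (10 nM). DNA was stained with propidium iodide, and the cell-cycle-altered fraction was measured by FACS.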

Data set [2] relates to 3′UTR of BIRC6. In words: Dual luciferase reporter assay (psiCHECK) in HEK293T, BIRC6 3'UTR. The note with it: for renilla value: 48 hours. The text has this:
For an miRNA target test, to psiCHECK, which is a luciferase vector (FIG. 9) specially designed for an miRNA target test including a firefly gene and a renilla gene in the same vector, a 3′UTR of the five genes shown in Table 5, which might be targeted by miR-BART15-3p, was individually cloned to prepare a vector for a target test for each of the genes.
HEK293T was divided into a 96-well plate such that 5×10^3 cells were allocated to each well, and miR-BART15-3p and a vector for a target test were transfected by using lipofectamine2000. Forty eight hours after the transfection, a dual luciferase reporter assay (Virology. 412(2), 392-400 (2011)) was performed to normalize the results with reference to firefly luciferase and observe a variation of the renilla luciferase gene expression. […] The renilla value was not decreased by […] which was formed by mutating a seed part of miR-BART15-3p (FIG. 10).
BIRC6 3′UTR included two target sites which might be hybridized with miR-BART15-3p. To verify whether these two sites are directly targeted by miR-BART15-3p, a point mutation was performed at a psiC-BIRC6 site which was seed-matched with miR-BART15-3p to prepare psiC-BIRC6m1 and psiC-BIRC6m2. Both of the sites were mutated to prepare psiC-BIRC6m1m2 (FIG. 11A).
HEK293T was divided into a 96-well plate such that 5×10^3 cells were allocated to each well, and miR-BART15-3p and a vector for a target test were transfected by using lipofectamine-2000. Forty eight hours after the transfection, a dual luciferase reporter assay (Virology. 412(2), 392-400 (2011)) was performed to normalize the results with reference to firefly luciferase and observe a variation of the renilla luciferase gene expression. The renilla value was not decreased in psiC-BIRC6m1 and psiC-BIRC6m1m2 by, while the renilla value was decreased in psiC-BIRC6m2 as in the case of psiC-BIRC6.
A general note: A reporter such as luciferase makes a cellular process visible.

For data set [3], the system named is TAX1BP1 mRNA. In words: TAX1BP1 mRNA level by QRT-PCR. The settings on record: AGS; after transfection; listed as miR-BART15-3p. The procedure:
miR-BART15-3p was transfected to AGS by using lipofectamine-2000. Forty eight hours after the transfection, the cells were harvested and a QRT-PCR and a Western blotting were performed (FIGS. 12A and 12B). The BIRC6 mRNA level was not changed in the AGS to which miR-BART15-3p was transfected, while the protein level was decreased.
Different from BIRC6, the mRNA level of TAX1BP1 was decreased in the AGS to which miR-BART15-3p was transfected (FIG. 12E).

Take “BART15-3p: EBV BART miRNA mimic, double stranded RNA; sense SEQ NO: 15, antisense SEQ NO: 16 (sense GUCAGUGGUUUUGUUUCCUUGA; antisense UCAAGGAAACAAAACCACUGAC; chemistry not given here)”: the “ratio of sub G1 after the 5-FU treatment” value in data set [1] (mimic 10 nM plus 10 uM 5-FU (Example 6)) was “greatly increased”. For the same substance, the “percentage of sub G1” value in data set [1] (mimic 10 nM transfected alone, versus scrambled control) is reported as “significantly higher”. For the same substance, the “Relative Sub G1” value is on record as 2.508 in data set [1] and “increased” in data set [1] (listed as 15-3p). Moreover, the renilla value entry in data set [2] (psiC-BIRC6m1 (point mutation of site 1)) was “not decreased”; in data set [2] (psiC-BIRC6m1m2 (both sites mutated)) it was “not decreased”; in data set [2] (psiC-BIRC6m2 (point mutation of site 2)), “decreased”. In addition, the “renilla value (renilla luciferase, normalized to firefly)” value in data set [2] (psiCHECK with BIRC6 3′UTR (psiC-BIRC6), 48 hours after transfection, listed as miR-BART15-3p) is on record as “decreased”. Moreover, in data set [3], the “mRNA level of TAX1BP1” value is “decrease”.
